In JP2021024822A, “安定化されたトリメブチンマレイン酸塩含有固形製剤” (Kyoto Pharmaceutical Industries Ltd, priority 2019, dated 2021):

Experiment: Related substance A content of the trimebutine maleate drug substance used
Type: physicochemical
Conditions: drug substance used in this study

CCC(COC(=O)c1cc(OC)c(OC)c(OC)c1)(c1ccccc1)N(C)C (stereo not shown) [トリメブチンマレイン酸塩]
content of related substance A in the trimebutine maleate drug substance: 0.06%
